# Measurements from patent US20050147608A1, “Novel regulatory mechanisms of NF-kappaB” (Beth Israel Deaconess Medical Center, Inc., priority 2003, published 2005).
# Where a SMILES comes first, the peptide text is derived from it. The star is where a group is joined. Cbz = O=C(OCc1ccccc1)*
# How the values were obtained:
# [1] = system: p65-T254A; experiment: Protein degradation assay (cycloheximide chase, immunoblot) of p65-T254A in 293T cells; format: cell-based; parameters: dose or concentration left out as unconfirmed
# Method: (A, B) Stabilization of p65-T254A by a proteosome inhibitor. 293T cells expressing Xpress-p65-T254A or Xpress-LacZ were treated with cycloheximide and MG-132 ([…]) or the solvent DMSO for the times indicated, followed by immunoblot with anti-Xpress antibody (A), followed by semi-quantification with Imagequant (B). (C) Ubiquitination of p65 in vitro. In vitro translated 35 S-labeled p65 was incubated with ubiquitin in the presence or absence of E1 and UbcH5a for times indicated, followed by separation on SDS-PAGE and autoradiography. (D) Ubiquitination of the GST-p65 fragment B, but A or C. GST-p65 truncation mutants (FIG. 3D) were incubated with HeLa S-100 extracts, ubiquitin, E1 and either UbcH5a or UbcH6 for 3 hrs, followed by GST pulldown and immunoblotting with anti-ubiquitin antibody. (E) Ubiquitination of GST-p65 fragment B via UbcH5a. GST-p65-truncated mutant B was subjected to ubiquitination assay in vitro using different E2 enzymes.
# 293T cells were transfected with Xpress-tagged p65. A plasmid encoding Xpress-LacZ was used as a transfection control. […] Cells were harvested at each time points, and total lysates were analyzed by immunoblotting with anti-Xpress antibody (Invitrogene). The blots were scanned and semi-quantified by using the software NIH image 1.6.2, as described (Ryo et al., 2001). […]
# [2] = system: p65; experiment: In vivo ubiquitination assay of p65 in HeLa cells (His-ubiquitin, Ni-agarose pulldown); format: cell-based; settings: His-tagged ubiquitin, MG-132 for 16 hr
# Method: (F) Ubiquitination of p65 in vivo. HeLa cells expressing p65, UbcH5a and His-tagged ubiquitin or vector controls were treated with MG-132 or DMSO control for 16 hr, followed by lysis using sonication in a buffer containing 6M urea. Ubiquitin-conjugated proteins were captured with […] beads and subjected to immunoblot with anti-p65 antibody.
# To examine which region of the p65 molecule can be ubiquitinated, different GST-p65 fragments (FIG. 3D) were incubated with S100 HeLa cells extracts, ubiquitin, E1 and UbcH5a or UbcH6, and then purified GST-p65 fragments using GST beads, followed by immunoblot with anti-ubiquitin antibodies. Although neither the fragment A nor C was ubiquitinated, fragment B, which contains the Pin1 binding Thr254-pro motif (FIG. 3E), was poly-ubiquitinated with UbcH5a, but not with UbcH6 (FIG. 6D). To examine whether other E2 enzymes could catalyze the ubiquitination of p65 in vitro, we incubated recombinant GST-p65 fragment B with in vitro ubiquitination assay using different E2 enzymes. Out of the 8 E2 enzymes examined, only UbcH5a effectively conjugated multiple ubiquitin molecules into p65 (FIG. 6E). […] However, no ubiquitinated p65 was detected in the absence of His ubiquitin and/or MG-132 (FIG. 6F), indicating the specificity of the in vivo ubiquitination assay.
# [3] = system: p65-T254A; experiment: Co-immunoprecipitation of Pin1 with Xpress-tagged p65-T254A in 293T cells after proteasome inhibition; format: cell-based; settings: 20 μM MG-132 for 12 hr
# Method: (G) Failure of Pin1 to bind p65-T254A. 293T cells were co-transfected with Pin1 and Xpress-tagged p65 or its T254A mutant. After cells were incubated with 20 μM MG-132 for 12 hr, they were subjected to immunoprecipitation analysis with anti-Xpress antibody, followed by immunoblot with anti-p65 or anti-Pin1 antibodies.
# (§1) Cells were arrested at the G1/S phase or the mitotic phase, as describe previously. Total cells, 293T or HeLa, were lysed with GST-pulldown buffer (50 mM Hepes pH7.4, 150 mM NaCl, 10% glycerol, 1% Triton-X100, 1.5 mM MgC12, 1 mM EGTA, 100 mM NaF, 1 mM Na3VO4, 1 mM DTT and 0.5 μg/ml Leupeptin, 1.0 μg/ml Pepstatin, 0.2 mM PMSF) and incubated were incubated with 20 μl of agarose beads containing GST-Pin1 or GST at 4° C. for 2 hr, as described previously (Ryo et al., 2001). The precipitated proteins were washed three times with wash buffer containing and subjected to SDS-PAGE. For immunoprecipitation, cells were harvested at 24 hr after transfection and lysed with NP-40 lysis buffer (10 mM Tris HCl pH7.5, 100 mM NaCl, 0.5% NP-40, 1 mM Na3VO4, 0.5 μg/ml Leupeptin, 1.0 μg/ml Pepstatin, 0.2 mM PMSF). Cell lysates were incubated for 1 hr with Protein A/G Sepahrose/mouse IgG complexes.
# Three truncation mutants of p65 were generated and subjected them to the GST-pulldown assay. […]
# [4] = system: p65; experiment: p65 protein stability in Pin1−/− MEFs; format: cell-based, mouse
# Source text: The ability of Pin1 to regulate the protein stability of p65 led to another surprising finding in this study, which is the ubiquitin-mediated proteolysis of p65. Although the ubiquitin-mediated proteolysis of IkBα has been well characterized (Baeuerle and Baltimore, 1996; Ghosh et al., 1998), a similar regulation has not been previously described for NF-kB itself. […] Furthermore, even in Pin1+/+ cells, the point mutation in p65 (T254A) that disrupts its binding to Pin1 converts p65 from a stable into an extremely unstable protein due to rapid nuclear export and subsequent protein degradation.
# [5] = system: Pin1 and p65; experiment: GST-Pin1 pulldown of Xpress-tagged p65 from 293T cells; format: binding; settings: 293T cells treated with TNF-α for 3 hrs vs PBS
# Method: (D) Enhancement of Pin1 and p65 binding by TNF-α. 293T cells expressing Xpress-tagged p65 were treated with PBS or TNF-αfor 3 hrs, followed by GST-pull down experiment and immunoblot with anti-Xpress antibody.
# as §1
# Pin1 binds and isomerizes specific pSer/Thr-Pro motifs in certain phosphoproteins. To explore the molecular mechanism of NF-kB activation by Pin1, it was investigated as to whether any components of NF-kB or IkBα are Pin1 substrates. […]
# [6] = system: NF-κB; experiment: NF-κB-Luc gene reporter assay in breast cancer cell lines after Pin1 inhibition; format: cell-based; settings: BT20 (ER-negative) and MCF-7 (ER-positive) cells, both cell lines; 48 hrs after transfection
# Source text: (C) Inhibition of NF-κB activation and NF-κB DNA binding activity in breast cancer cell lines by downregulation of Pin 1. Two breast cancer cell lines were transfected with Pin1-specific or non-specific siRNA together with a NF-kB-Luc or TK-Luc reporter construct for 48 hrs, followed by assaying luciferase activity and Pin1 protein levels (insets) (C) or assaying NF-κB DNA binding activity by EMSA using NF-κB or OCT1 consensus oligonucleotides (D).
# Approximately 60% confluent cells were transfected in triplicate in 12 well dishes with Effectene (Qiagen). Gene reporter assays were performed with Dual-Luciferase reporter assay system (Promega) at 24-36 hr after transfection as described previously (Wulf et al., 2001). pRL-TK (Promega) was used as an internal control for transfection efficiency. All results are expressed as X±SD of independent triplicate cultures. For gene reporter assays in breast cancer cell line, cells were transfected with pSuppressor Neo vector encoding Pin1 specific siRNA (5′-[…]-3′) or non-specific siRNA (5′-[…]-3′) together with Ig-kB luciferase construct and pRL-TK. After 48 hr, cells were lysed and subjected to gene reporter assay.
# Given that the NF-κB activation is regulated by a series of phosphorylation events, it was investigated whether Pin1 is involved in this regulation. […]
compound,measurement,setting,value
CC(C)C[C@@H](C=O)NC(=O)[C@H](CC(C)C)NC(=O)[C@H](CC(C)C)NC(=O)OCc1ccccc1 [MG-132] (Cbz-Leu-Leu-Leu-aldehyde),half-life of p65-T254A protein,[1],strikingly prolonged the half-life of p65-T254A protein
same,poly-ubiquitination of p65,[2],p65 was substantially poly-ubiquitinated
same,stability of p65-T254A,[3],p65-T254A was stable
same,stability of p65,[4],could be stabilized
TNF-α,increase of Pin1-p65 binding,[5],~3 fold
siRNA: pSuppressor Neo vector encoding Pin1 specific siRNA (5′-GCCACATCACTAACGCCAGC-3′) (expressed from pSuppressor Neo vector),transcriptional activity of NF-κB-Luc,[6],significantly suppressed the transcriptional activity of NF-κB-Luc
